From patent publication US20100197753A1, “Benzamides Useful as S1P Receptor Modulators” (Novartis AG, priority 2007, published 2010) come the findings set out here.

T2 sequence (P21453 whole entry): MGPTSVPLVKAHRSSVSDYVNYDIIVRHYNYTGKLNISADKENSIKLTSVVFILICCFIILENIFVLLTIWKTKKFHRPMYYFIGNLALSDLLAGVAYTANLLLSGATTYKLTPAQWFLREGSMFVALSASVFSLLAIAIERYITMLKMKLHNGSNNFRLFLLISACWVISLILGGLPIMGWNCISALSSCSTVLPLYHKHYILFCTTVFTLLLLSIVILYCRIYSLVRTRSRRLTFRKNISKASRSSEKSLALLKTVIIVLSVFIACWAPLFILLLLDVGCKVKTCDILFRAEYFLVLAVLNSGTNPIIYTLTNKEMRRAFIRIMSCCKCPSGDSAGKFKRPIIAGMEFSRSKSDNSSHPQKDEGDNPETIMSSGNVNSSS

The first assay deals with T1, human S1P4 receptor (Homo sapiens, UniProt O95977).
T1 construct: expressed in transfected cells; host or cells: CHO-K1 (ATCC CCL 61); RH7777 may also be used
T1 sequence (O95977 1-384): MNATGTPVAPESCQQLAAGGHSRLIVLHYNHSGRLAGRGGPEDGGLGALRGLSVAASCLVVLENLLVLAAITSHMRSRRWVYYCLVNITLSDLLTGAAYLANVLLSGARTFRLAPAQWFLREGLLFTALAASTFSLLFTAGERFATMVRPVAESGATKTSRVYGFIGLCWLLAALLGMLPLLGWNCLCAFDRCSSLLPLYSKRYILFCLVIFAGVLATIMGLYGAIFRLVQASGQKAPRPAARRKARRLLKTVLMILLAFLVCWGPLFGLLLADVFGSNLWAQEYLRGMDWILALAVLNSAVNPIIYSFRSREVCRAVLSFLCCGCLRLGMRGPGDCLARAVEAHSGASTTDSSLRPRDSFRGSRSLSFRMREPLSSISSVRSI
Briefly: 35S-GTPγS binding assay (Test 1), S1P4. The assay is classed as biochemical. Conditions: membrane protein of transfected CHO cells, SPA. As for the experimental part: (§1) Test 1: ^35S-GTPγS Binding Assay
(§2) The S1P receptor modulating properties of an agent of the invention are tested on the human S1P1, S1P2, S1P3, S1P4 and S1P5, respectively, receptor subtypes. The functional receptor activation is assessed by quantifying the compound-induced ^35S-GTPγS binding to membrane protein prepared from transfected heterologous cells stably expressing the appropriate S1P receptor subtype. CHO cells (CHO-K1, Chinese hamster, ATCC no. CCL 61) are used [RH7777 cells (rat Morris hepatoma, ATCC no. CRL 1601) may also be used]. The membrane protein is prepared from wild-type cells and from different cell clones expressing the appropriate S1P receptor subtype. The assay technology used is SPA (scintillation proximity based assay). A DMSO solution of the test compound is serially diluted and added to SPA-bead (Amersham-Pharmacia) immobilised S1P receptor subtype expressing membrane protein (1 to 20 μg/well) in the presence of 50 mM HEPES, 100 mM NaCl, 10 mM MgCl2, 10 μM GDP, 0.1% fat free BSA and 0.2 nM ^35S-GTPγS (1200 Ci/mmol) (pH 7.4). After incubation in 96 well microtiter plates at room temperature for 120 minutes, the unbound ^35S-GTPγS is separated by centrifugation. The luminescence of SPA beads triggered by membrane bound ^35S-GTPγS is quantified with a TOPcount plate reader (Packard). To evaluate the S1P receptor modulation, the stimulation (in %) compared to the baseline is calculated as the binding in the presence of the compound divided by the binding in the absence of a ligand, multiplied by 100. Dose response curves are plotted using a non-linear regression curve fitting program, and the EC50 is defined as the concentration of the compound required to give 50% of its maximum stimulation. Preferably, the EC50 value of an agent of the invention in this test is 10′000 nM or less. The selectivity of the compound towards the S1P receptor subtypes is determined by measuring for each of the different S1P receptor subtypes the level of ^35S-GTPγS binding in the presence of the compound using each of the different membrane proteins.
(In general: Binding of GTPγS marks nucleotide exchange on a G protein.)
As to `CCCn1nccc1-c1ccc(Nc2c(C)cc(C)cc2C)c(C(N)=O)c1` [Example 27, 5-(2-Propyl-2H-pyrazol-3-yl)-2-(2,4,6-trimethyl-phenylamino)-benzamide], the “efficacy, receptor subtype S1P4” value is listed as 130%.
On the same count and under the same terms, with `Cc1cc(C)c(Nc2ccc(Cl)cc2C(N)=O)c(C)c1` [Example 37, 5-Chloro-2-(2,4,6-trimethyl-phenylamino)-benzamide] the figure was 109%; with `COc1ccc(Nc2c(C)cc(C)cc2C)c(C(N)=O)c1` [Example 36, 5-Methoxy-2-(2,4,6-trimethyl-phenylamino)-benzamide], 126%.

Staying with this assay, now noted: membrane protein of transfected CHO cells, SPA; read-out: EC50, receptor subtype S1P4.
For the compound `CCCn1nccc1-c1ccc(Nc2c(C)cc(C)cc2C)c(C(N)=O)c1` [Example 27, 5-(2-Propyl-2H-pyrazol-3-yl)-2-(2,4,6-trimethyl-phenylamino)-benzamide], the EC50 was 106 nM.
As for `Cc1cc(C)c(Nc2ccc(Cl)cc2C(N)=O)c(C)c1` [Example 37, 5-Chloro-2-(2,4,6-trimethyl-phenylamino)-benzamide], the EC50 was 160 nM.
Same read-out and setting: in the case of `COc1ccc(Nc2c(C)cc(C)cc2C)c(C(N)=O)c1` [Example 36, 5-Methoxy-2-(2,4,6-trimethyl-phenylamino)-benzamide] it was 210 nM.

The next assay addresses T2, human S1P1 receptor (Homo sapiens, UniProt P21453).
T2 construct: expressed in transfected cells; host or cells: CHO-K1 (ATCC CCL 61); RH7777 may also be used
The experiment in a line: 35S-GTPγS binding assay (Test 1), S1P1. The assay is classed as biochemical. Conditions: membrane protein of transfected CHO cells, SPA. As for the experimental part:
as §1, §2
Turning to `CCCn1nccc1-c1ccc(Nc2c(C)cc(C)cc2C)c(C(N)=O)c1` [Example 27, 5-(2-Propyl-2H-pyrazol-3-yl)-2-(2,4,6-trimethyl-phenylamino)-benzamide], the “efficacy, receptor subtype S1P1” value is 85%.
For the compound `Cc1cc(C)c(Nc2ccc(Cl)cc2C(N)=O)c(C)c1` [Example 37, 5-Chloro-2-(2,4,6-trimethyl-phenylamino)-benzamide], the “efficacy, receptor subtype S1P1” value worked out at 93%.
The same measure, in the same setting: in the case of `COc1ccc(Nc2c(C)cc(C)cc2C)c(C(N)=O)c1` [Example 36, 5-Methoxy-2-(2,4,6-trimethyl-phenylamino)-benzamide] it was 87%.

The assay is the same for the next values; noted with them: membrane protein of transfected CHO cells, SPA; read-out: EC50, receptor subtype S1P1.
Take `CCCn1nccc1-c1ccc(Nc2c(C)cc(C)cc2C)c(C(N)=O)c1` [Example 27, 5-(2-Propyl-2H-pyrazol-3-yl)-2-(2,4,6-trimethyl-phenylamino)-benzamide]: the EC50 worked out at 495 nM.
Regarding `Cc1cc(C)c(Nc2ccc(Cl)cc2C(N)=O)c(C)c1` [Example 37, 5-Chloro-2-(2,4,6-trimethyl-phenylamino)-benzamide], the EC50 was 150 nM.
As for `COc1ccc(Nc2c(C)cc(C)cc2C)c(C(N)=O)c1` [Example 36, 5-Methoxy-2-(2,4,6-trimethyl-phenylamino)-benzamide], the EC50 was determined as 305 nM.

The target of another assay is T3, human S1P5 receptor (Homo sapiens, UniProt Q9H228).
T3 construct: expressed in transfected cells; host or cells: CHO-K1 (ATCC CCL 61); RH7777 may also be used
T3 sequence (Q9H228 whole entry): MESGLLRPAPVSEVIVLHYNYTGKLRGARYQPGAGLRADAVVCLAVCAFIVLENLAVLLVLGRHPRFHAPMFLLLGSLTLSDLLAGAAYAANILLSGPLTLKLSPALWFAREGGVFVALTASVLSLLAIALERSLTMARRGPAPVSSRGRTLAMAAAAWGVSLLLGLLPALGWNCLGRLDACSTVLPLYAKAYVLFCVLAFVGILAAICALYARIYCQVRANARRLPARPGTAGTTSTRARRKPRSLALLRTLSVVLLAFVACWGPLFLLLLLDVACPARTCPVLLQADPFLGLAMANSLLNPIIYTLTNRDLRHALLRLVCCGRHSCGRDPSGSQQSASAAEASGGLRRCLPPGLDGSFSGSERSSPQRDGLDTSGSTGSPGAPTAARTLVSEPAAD
Briefly: 35S-GTPγS binding assay (Test 1), S1P5. Format: biochemical. Conditions: membrane protein of transfected CHO cells, SPA. As for the experimental part:
as §1, §2
In the case of `CCCn1nccc1-c1ccc(Nc2c(C)cc(C)cc2C)c(C(N)=O)c1` [Example 27, 5-(2-Propyl-2H-pyrazol-3-yl)-2-(2,4,6-trimethyl-phenylamino)-benzamide], the “efficacy, receptor subtype S1P5” value is reported as 93%.
For the compound `Cc1cc(C)c(Nc2ccc(Cl)cc2C(N)=O)c(C)c1` [Example 37, 5-Chloro-2-(2,4,6-trimethyl-phenylamino)-benzamide], the “efficacy, receptor subtype S1P5” value is reported as 66%.
For the compound `COc1ccc(Nc2c(C)cc(C)cc2C)c(C(N)=O)c1` [Example 36, 5-Methoxy-2-(2,4,6-trimethyl-phenylamino)-benzamide], the “efficacy, receptor subtype S1P5” value amounted to 64%.

The assay is the same for the next values; noted with them: membrane protein of transfected CHO cells, SPA; read-out: EC50, receptor subtype S1P5.
As for `CCCn1nccc1-c1ccc(Nc2c(C)cc(C)cc2C)c(C(N)=O)c1` [Example 27, 5-(2-Propyl-2H-pyrazol-3-yl)-2-(2,4,6-trimethyl-phenylamino)-benzamide], the EC50 turned out to be 25 nM.
On the same count and under the same terms, with `Cc1cc(C)c(Nc2ccc(Cl)cc2C(N)=O)c(C)c1` [Example 37, 5-Chloro-2-(2,4,6-trimethyl-phenylamino)-benzamide] the figure was 90 nM; with `COc1ccc(Nc2c(C)cc(C)cc2C)c(C(N)=O)c1` [Example 36, 5-Methoxy-2-(2,4,6-trimethyl-phenylamino)-benzamide], 80 nM.

The term EC50 denotes the concentration giving half of the maximal effect.
